# Source: article PMC7272617 (Scientific Reports, 2020)
# Several values for one entry are separate records, joined by “and”; a condition that tells them apart may be missing. Identical values can stand only once. Where a SMILES comes first, the peptide text is derived from it.
# Legend:
# P. aeruginosa ATCC 27853 [1] = assay: Salt sensitivity: MIC in the presence of physiological salts; type: cell-based, Pseudomonas aeruginosa
# Description: The antimicrobial activity of the peptides was determined against both Gram-positive and -negative bacteria including 14 MDR P. aeruginosa clinical isolates from Bhumibol Adulyadej Hospital (Tables 1 and 3). The minimal inhibitory concentration (MIC) of each peptide was measured according to a modification of the National Committee for Clinical Laboratory Standards (NCCLS) broth microdilution method as previously described. Briefly, bacterial cells in mid-log phase were cultured in Müeller-Hinton broth (MHB) and then diluted to 10^7 CFU/ml. Fifty microliters of 2-fold serially diluted peptides, with concentrations ranging from 0.98 to 250 μg/ml in 0.01% (vol/vol) acetic acid and 0.2% (wt/vol) bovine serum albumin (BSA, Sigma), were added to each well of sterile 96-well plates, followed by 50 μl of bacterial solution. Plates were incubated at 37 °C for 24 h, and MICs were defined as the lowest concentration of peptide that prevented visible turbidity. Cultures without peptides and uninoculated MHB were employed as positive and negative controls, respectively. Colony count assays were performed to determine the minimal bactericidal concentrations (MBCs) for determination of time-killing activity. As previously described, a 50 μl aliquot from each non-turbid well identified in the MIC determination experiment was spread on agar plates. MBCs were defined as the lowest concentration of peptides where no colony growth was observed on agar plates after 24 h incubation at 37 °C.
# To test the effect of salts on the antibacterial activity of PA-13, the mid-logarithmic phase (10^7 CFU/ml) of P. aeruginosa ATCC 27853 was exposed to different concentrations of PA-13 in the presence of different physiological salts: 150 mM NaCl; 4.5 mM KCl; 1 mM MgCl2; 6 µM NH4Cl; 8 µM ZnCl2; 4 µM FeCl3; […][22]. After these treatments, the MICs were determined as described above.
# P. aeruginosa ATCC 27853 [2] = assay: Membrane permeability (PI) and depolarization (BOX), flow cytometry; type: cell-based, Pseudomonas aeruginosa; conditions: for permeabilized and depolarized cells: 0.5 × MIC; for cell population BOX+PI- / cell population BOX-PI+ / cell population BOX-PI- / permeabilized and depolarized cells (BOX+PI+): 1 × MIC; for permeabilized and depolarized cells (BOX+PI+): 37 °C, triplicate
# Description: Their outer and inner membranes provide important protection for Gram-negative bacteria. To assess membrane permeability and depolarization induced by PA-13, the DNA intercalating dyes propidium iodide (PI) and bis-(1,3-dibutylbarbituric acid) trimethine oxonol (BOX) were used as previously described. The fluorescence conferred by these dyes is generally associated with the loss of membrane integrity and potential, respectively.
# Briefly, P. aeruginosa ATCC 27853 was cultured to mid-logarithmic phase and harvested by centrifugation at 2,000 × g for 5 min. The bacterial cells were washed thrice with PBS and diluted to 10^7 CFU/ml in 50 ml of PBS. […] Bacterial pellets were harvested and washed with PBS by centrifugation at 10,000 × g for 10 min. […] Untreated bacterial cells (no peptide) served as a negative control, whereas bacterial cells treated with melittin served as a positive control. Data was recorded using a flow cytometer (CytoFlex, Beckman Coulter) at a laser excitation wavelength of 488 nm. Forward scatter (FS), side scatter (SS), green fluorescence (530/30 nm) from BOX and red fluorescence (585/42 nm) emitted by PI were collected using logarithmic scales. 25,000 cells, defined according to their scatter parameters, were counted in each sample. The experiments were performed in triplicate and the data was analyzed using Kaluza software.
# P. aeruginosa ATCC 27853 [3] = assay: Membrane-penetrating activity of TAMRA-labelled peptide, flow cytometry; type: cell-based, Pseudomonas aeruginosa; conditions: 1 × MIC, measured with TAMRA-labelled PA-13
# Description: To clarify whether bacterial membrane permeabilization resulted from peptide uptake, the interaction of TAMRA-labelled PA-13 with the membrane of bacteria cells was investigated by flow cytometry. […] After incubation, unbound labelled peptide was removed by washing with PBS. Then the fluorescence signal from treated cells was determined by flow cytometry (CytoFlex, Beckman Coulter).
# LPS from E. coli O111:B4 = assay: LPS binding, chromogenic limulus amebocyte lysate (LAL) assay; parameters: species or system Escherichia coli; conditions: 1 EU/mL LPS, 1 × to 32 × MIC, 37 °C, 30 min; result in words
# Description: The ability of PA-13 to bind LPS was assessed using a quantitative, chromogenic limulus amebocyte lysate (LAL) according to the manufacturer’s instructions (Thermo Scientific). The LAL test is a sensitive indicator of the presence of free or non-neutralized endotoxin[30]. Stock solutions of peptide were prepared in endotoxin-free water provided with the kit. […] LAL reagent was added and incubated for 10 min at 37 °C, followed by addition of a colorless substrate and incubation for a further 6 min. The reaction was stopped with 25% (vol/vol) glacial acetic acid and the release of p-nitroaniline followed by absorbance at 405 nm. Endotoxin-free water served as a negative control (blank) and was considered 0% LPS binding. After blank subtraction, the percentage of LPS binding was calculated according to the following equation: %LPSbinding=(ODUntreated-ODTreated)/ODUntreated×100
# [4] = tested on: Staphylococcus aureus ATCC 25923; conditions: ATCC 25923, 24 h
# [5] = tested on: Listeria monocytogenes 10403 s; conditions: 10403 s, 24 h
# [6] = tested on: MDR P. aeruginosa clinical isolate No.12
# [7] = tested on: MDR P. aeruginosa clinical isolate No.13; conditions: MDR clinical isolate No.13, 24 h
smiles,measurement,setting,value
CC[C@H](C)[C@H](NC(=O)[C@H](CCCNC(=N)N)NC(=O)[C@H](CCCCN)NC(=O)[C@H](C)NC(=O)[C@@H](NC(=O)[C@@H](N)CCCCN)[C@@H](C)CC)C(=O)N[C@@H](Cc1c[nH]c2ccccc12)C(=O)N[C@@H](CCCCN)C(=O)N[C@H](C(=O)N[C@@H](CC(C)C)C(=O)N[C@@H](CCCNC(=N)N)C(=O)N[C@@H](CCCNC(=N)N)C(=O)N[C@@H](CCCNC(=N)N)C(N)=O)[C@@H](C)CC [PA-13] (H-KIAKRIWKILRRR-NH2; N-terminus assumed),MIC in the presence of FeCl3,"P. aeruginosa ATCC 27853 [1]; 4 µM FeCl3, unit inferred",3.91 µg/mL
same,MIC in the presence of NH4Cl,"P. aeruginosa ATCC 27853 [1]; 6 µM NH4Cl, unit inferred",3.91 µg/mL
same,MIC in the presence of ZnCl2,"P. aeruginosa ATCC 27853 [1]; 8 µM ZnCl2, unit inferred",3.91 µg/mL
same,MIC in the presence of MgCl2,"P. aeruginosa ATCC 27853 [1]; 1 mM MgCl2, unit inferred",31.2 µg/mL
same,increase of MIC in the presence of K+,P. aeruginosa ATCC 27853 [1]; 4.5 mM KCl versus control,2 fold
same,MIC in the presence of KCl,"P. aeruginosa ATCC 27853 [1]; 4.5 mM KCl, unit inferred",7.81 µg/mL
same,MIC in the presence of NaCl,"P. aeruginosa ATCC 27853 [1]; 150 mM NaCl, unit inferred",31.2 µg/mL
same,MIC in the presence of CaCl2,"P. aeruginosa ATCC 27853 [1]; […] CaCl2, unit inferred",3.91 µg/mL
same,"MIC, control","P. aeruginosa ATCC 27853 [1]; absence of physiological salts, unit inferred",3.91 µg/mL
same,permeabilized and depolarized cells,P. aeruginosa ATCC 27853 [2]; 15 min,72.75 ± 1.08%
same,permeabilized and depolarized cells,P. aeruginosa ATCC 27853 [2]; 30 min,75.30 ± 2.68%
same,permeabilized and depolarized cells,P. aeruginosa ATCC 27853 [2]; 60 min,81.66 ± 3.35%
same,cell population BOX+PI-,P. aeruginosa ATCC 27853 [2]; 15 min,3.55%
same,cell population BOX-PI+,P. aeruginosa ATCC 27853 [2]; 15 min,7.74%
same,cell population BOX-PI-,P. aeruginosa ATCC 27853 [2]; 15 min,0.68%
same,permeabilized and depolarized cells (BOX+PI+),P. aeruginosa ATCC 27853 [2]; 15 min,88.03 ± 3.02% and 88.03%
same,cell population BOX+PI-,P. aeruginosa ATCC 27853 [2]; 30 min,5.74%
same,cell population BOX-PI+,P. aeruginosa ATCC 27853 [2]; 30 min,3.61%
same,cell population BOX-PI-,P. aeruginosa ATCC 27853 [2]; 30 min,0.96%
same,permeabilized and depolarized cells (BOX+PI+),P. aeruginosa ATCC 27853 [2]; 30 min,89.69 ± 5.25% and 89.69%
same,cell population BOX+PI-,P. aeruginosa ATCC 27853 [2]; 60 min,6.25%
same,cell population BOX-PI+,P. aeruginosa ATCC 27853 [2]; 60 min,1.05%
same,cell population BOX-PI-,P. aeruginosa ATCC 27853 [2]; 60 min,0.62%
same,permeabilized and depolarized cells (BOX+PI+),P. aeruginosa ATCC 27853 [2]; 60 min,92.07 ± 5.15% and 92.07%
same,time to binding and penetration,P. aeruginosa ATCC 27853 [3],≤ 5 min
same,LPS binding activity,LPS from E. coli O111:B4,dose-dependent LPS binding activity
same,MIC,[4],62.5 µg/mL
same,MIC,[5],3.91 µg/mL
same,MIC,[6],3.91 µg/mL
same,MIC,[7],15.63 µg/mL
